Measurements taken from PMC5576976 (Translational Oncology, 2017).

Target: IMP1 (insulin-like growth factor-2 mRNA-binding protein 1) (Homo sapiens, UniProt Q9NZI8)
Assay: fluorescence anisotropy/polarization microplate assay

Chain of IMP1 (insulin-like growth factor-2 mRNA-binding protein 1) (Q9NZI8 whole entry): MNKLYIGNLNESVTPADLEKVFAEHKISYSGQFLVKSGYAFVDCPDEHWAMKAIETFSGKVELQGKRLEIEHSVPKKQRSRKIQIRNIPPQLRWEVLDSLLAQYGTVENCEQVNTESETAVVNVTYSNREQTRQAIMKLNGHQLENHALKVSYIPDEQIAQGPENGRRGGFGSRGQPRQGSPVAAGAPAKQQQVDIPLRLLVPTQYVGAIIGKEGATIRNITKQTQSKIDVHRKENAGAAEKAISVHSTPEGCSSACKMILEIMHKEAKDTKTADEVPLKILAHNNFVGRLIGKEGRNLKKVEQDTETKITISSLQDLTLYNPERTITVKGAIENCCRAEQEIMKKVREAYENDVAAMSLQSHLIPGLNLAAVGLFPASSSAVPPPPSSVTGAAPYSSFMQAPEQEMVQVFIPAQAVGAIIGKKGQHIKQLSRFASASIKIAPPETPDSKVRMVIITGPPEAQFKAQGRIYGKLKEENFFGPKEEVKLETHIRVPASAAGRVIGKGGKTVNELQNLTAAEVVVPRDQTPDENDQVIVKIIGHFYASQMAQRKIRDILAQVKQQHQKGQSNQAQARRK

Question: Which IC50 does the source give for `NC(=O)c1ccccc1N=Cc1ccc(Br)s1` [BTYNB, 2-{[(5-bromo-2-thienyl)methylene]amino}benzamide] here?
Answer: The IC50 was 5 µM.
